# Source: US8481690B2, “Methods for detecting symmetrical dimethylarginine” (IDEXX Laboratories, Inc., priority 2008, dated 2013)
# Columns and labels:
# Format in all cases: binding
# [1] = tested on: polyclonal antibody from Rabbit No. 154; test: Specificity determined with greater stringency, polyclonal antibody from Rabbit No. 154; conditions: Rabbit No. 154, greater stringency
# Method: (§1) In order to assess the specificity of the antibodies obtained by the procedures described in Example 3 above, their reactivity to SDMA, ADMA, L-arginine, and/or N-methylarginine was measured in a competitive ELISA assay (Table 1).
# (§2) ADMA-2HCl, SDMA-2HCl, N-methylarginine acetate (Sigma, Cat. No. M7033) or L-arginine (Sigma, Cat. No. A5006) were each dissolved in PBS to make stock solutions at 1 mg/ml. From these stock solutions, working solutions at 100 μg/ml, 10 μg/m and 1 μg/m were prepared in PBS.
# (§3) 50 μl of the SDMA-HRP conjugate (as described in Example 5 below), 50 μl of ADMA, SDMA, N-methylarginine or L-arginine (at concentrations from 1-100 μg/ml as described above), and 50 μl of rabbit anti-SDMA antibody in serum (1:3000 titer) were sequentially added to an individual well in a 96-well polystyrene microwell plate, precoated with sheep anti-rabbit IgG (commercially available from Beacon Analytical Systems Inc. of Portland, Me.). After a 30 minutes incubation period at room temperature, the wells were washed 4 times with PBST (Phosphate Buffered Saline, 0.05% Tween).
# (§4) 100 μl of 3,3′,5,5′-Tetramethylbenzidine (commercially available from Promega Corporation of Madison, Wis.) was subsequently added. Following a 30 minutes incubation period at room temperature, 100 μl of stop solution (1 N HCl) was added and the absorbance was measured at […] using a BioTek ELX 808 (Winooski, Vt.) plate reader. The data was subjected to quantification using Softmax software (Molecular Devices, Sunnyvale, Calif.).
# The absorbance values obtained with 0 μg/mL, 1 μg/mL, 10 μg/mL, and 100 μg/mL of ADMA, SDMA, N-methylarginine or L-arginine, respectively, were determined and plotted. […]
# In another experiment, using only polyclonal antibody from Rabbit No. 154, the specificity of the antibody was determined with greater stringency by the method described above.
# [2] = tested on: rabbit anti-SDMA antibody in serum, Rabbit # 153 (SDMA conjugated with KLH immunogen); test: Competitive ELISA, specificity of anti-SDMA antibody, Rabbit # 153; conditions: Rabbit # 153 (1:2.5K); for IC 50: competition with SDMA-HRP conjugate
# Method: as §1, §2
# (§5) […] After a 30 minutes incubation period at room temperature, the wells were washed 4 times with PBST (Phosphate Buffered Saline, 0.05% Tween).
# as §4
# (§6) The absorbance values obtained with 0 μg/mL, 1 μg/mL, 10 μg/mL, and 100 μg/mL of ADMA, SDMA, N-methylarginine or L-arginine, respectively, were determined and plotted. The concentration of SDMA at which the absorbance value was reduced by 50% (relative to the maximum absorbance obtained at 0 μg/mL SDMA; i.e. IC50) was divided by each of the concentrations of ADMA, N-methylarginine or L-arginine, respectively, at which the absorbance value was reduced by 50% (IC50). The resulting value was multiplied by 100 to obtain the value “% cross-reactivity”.
# [3] = tested on: rabbit anti-SDMA antibody in serum, Rabbit # 156 (SDMA conjugated with BSA immunogen); test: Competitive ELISA, specificity of anti-SDMA antibody, Rabbit # 156; conditions: Rabbit # 156 (1:20K); for IC 50: competition with SDMA-HRP conjugate
# Method: as §1, §2, §5, §4, §6
# [4] = tested on: rabbit anti-SDMA antibody in serum, Rabbit # 152 (SDMA conjugated with KLH immunogen); test: Competitive ELISA, specificity of anti-SDMA antibody, Rabbit # 152; conditions: Rabbit # 152 (1:5K); for % Cross Reactivity: IC50 of SDMA divided by IC50 of competitor x 100; for IC 50: competition with SDMA-HRP conjugate, absorbance reduced by 50%
# Method: as §1, §2, §5, §4, §6
# [5] = tested on: rabbit anti-SDMA antibody in serum, Rabbit # 154 (SDMA conjugated with KLH immunogen); test: Competitive ELISA, specificity of anti-SDMA antibody, Rabbit # 154; conditions: Rabbit # 154 (1.25K); for IC 50: competition with SDMA-HRP conjugate
# Method: as §1, §2, §5, §4, §6
# [6] = tested on: rabbit anti-SDMA antibody in serum, Rabbit # 155 (SDMA conjugated with BSA immunogen); test: Competitive ELISA, specificity of anti-SDMA antibody, Rabbit # 155; conditions: Rabbit # 155 (1:3K); for IC 50: competition with SDMA-HRP conjugate
# Method: as §1, §2, §3, §4, §6
# [7] = tested on: rabbit anti-SDMA antibody in serum, Rabbit # 157 (SDMA conjugated with BSA immunogen); test: Competitive ELISA, specificity of anti-SDMA antibody, Rabbit # 157; conditions: Rabbit # 157 (1:15K); for IC 50: competition with SDMA-HRP conjugate
# Method: as §1, §2, §5, §4, §6
SMILES,Specificity (Cross-Reactivity) [1] [%],% Cross Reactivity [2] [%],IC 50 [2] [mg/L],% Cross Reactivity [3] [%],IC 50 [3] [mg/L],% Cross Reactivity [4] [%],IC 50 [4] [mg/L],% Cross Reactivity [5] [%],IC 50 [5] [mg/L],% Cross Reactivity [6] [%],IC 50 [6] [mg/L],% Cross Reactivity [7] [%],IC 50 [7] [mg/L]
"CN(C)C(=N)NCCCC(N)C(=O)O (stereo not drawn) [ADMA, asymmetrical dimethylarginine]",<0.2,<1,>100,<1,>100,<1,>100,<1,>100,<1,>100,<1,>100
"N=C(N)NCCC[C@H](N)C(=O)O [L-Arginine, arginine]",<0.01,<1,>100,<1,>100,<1,>100,<1,>100,<1,>100,<1,>100
"CNC(=N)NCCCC(N)C(=O)O (stereo not drawn) [N-MMA, N-monomethylarginine]",–,<1,>100,<1,>100,<1,>100,<1,>100,<1,79,<1,>100
"C/N=C(\NC)NCCCC(N)C(=O)O (stereo not drawn) [SDMA, symmetrical dimethylarginine]",100,100,0.65,100,1.3,100,1.10,100,0.49,100,0.73,100,1.6
